Measured values as given in BindingDB's records for doi:10.1021/acsmedchemlett.0c00444 (Virginia Commonwealth University, 2020).

Test: Inhibition of HIV1 3B reverse transcriptase infected in human GHOST CXCR4 cells assessed as reduction in viral replication incubated for 60 to 90 mins in presence of DTT and TTP by liquid scintillation counter

EC50 | SMILES
144000 nM | CNC(=O)COCC(=O)NCCCCNC(=O)COCC(=O)NC[C@H]1CC[C@H](/N=C(\NC2CCCCC2)SCC2=CSC3=NC(C)(C)CN23)CC1
22 nM | CC1(C)CN2C(CS/C(=N\C3CCCCC3)NC3CCCCC3)=CSC2=N1 [(6,6-dimethyl-5,6-dihydroimidazo[2,1-b][1,3]thiazol-3-yl)methyl N,N'-dicyclohexylimidothiocarbamate]

SMILES | EC50
CC1(C)CN2C(CS/C(N)=N\[C@H]3CC[C@H](CNC(=O)COCC(=O)NCCCCNC(=O)COCC(=O)N[C@@H]4CC[C@@]5(O)[C@H]6Cc7ccc(O)c8c7[C@@]5(CCN6CC5CC5)[C@H]4O8)CC3)=CSC2=N1 | 960 nM
